Assay results from patent US20250255793A1, “ANTI-AGING CATALYST COMPOSITION COMPRISING A BLEND OF COSMETIC ACIDS” (LOREAL, priority 2024, published 2025).

What was measured:
[1] = system: keratinocytes; experiment: Taurine induced NAD+ stimulation in cultured keratinocytes; type: cell-based; conditions: for NAD+ level: keratinocytes
Protocol: Cell studies were conducted in which the effects of taurine and niacinamide on the NAD+ production were assessed when keratinocytes were cultured with these raw materials. In all of the tested conditions supplemented with actives, the NAD+ of the cells were increased compared to the untreated control.
Taurine has been identified as an active of interest for skin care due to its potential benefits to boost cell energy. This report explores the effect of supplementing taurine with keratinocytes to understand its effect on increasing NAD+ level in the cells. […] In our in vitro study, we observed that vitamin C, vitamin E and ferulic acid imparts significant benefits to the cell cycle and cell division. When combined with anti-aging catalyst composition, the treatment not only enhances skin renewal and resurfacing benefits but also maintains the positive effects on cell cycle and cell division. This is evident in the more pronounced impact on pathways related to skin cornification and epidermis development compared to single type treatment.

[2] = system: UVB-induced wrinkle formation; conditions: oral taurine supplementation; cited from earlier work
[3] = system: diabetic precataractous lens; conditions: dietary taurine supplementation; cited from earlier work

| Structure (SMILES) | NAD+ level ([1]; 0.2% niacinamide) | NAD+ level ([1]; 0.05% taurine) | NAD+ of the cells compared to the untreated control ([1]; keratinocytes cultured with raw material) | UVB-induced wrinkle formation [2] | MDA levels, GSSG/GSH, and NAD+/NADH [3] |
| --- | --- | --- | --- | --- | --- |
| NC(=O)c1cccnc1 [niacinamide, reference compound] | higher level of NAD+ compared to 0.05% niacinamide | – | – | – | – |
| NCCS(=O)(=O)O [taurine] | – | comparable NAD+ level as compared to 0.2% niacinamide | stimulatory effect in increasing the NAD+ level | suppress | ameliorates |
